Results: publication PMC12459614 (European journal of medicinal chemistry, 2025)
Blank lines part the entries; values can stand above or below the compound they belong to.

What was measured:
[1] = target: FGFR1 (Homo sapiens, UniProt P11362); assay: PathHunter U2OS FGFR1 functional counter assay; format: cell-based; conditions: dose response
[2] = target: T1, hGPR17L (Homo sapiens, UniProt Q13304); assay: cAMP signaling in GLUTag cells expressing hGPR17L; format: cell-based; conditions: for attenuation of MDL-mediated inhibition of forskolin-stimulated cAMP: 10 μM compound, 100 nM MDL, 10 μM forskolin
T1 sequence (Q13304 whole entry): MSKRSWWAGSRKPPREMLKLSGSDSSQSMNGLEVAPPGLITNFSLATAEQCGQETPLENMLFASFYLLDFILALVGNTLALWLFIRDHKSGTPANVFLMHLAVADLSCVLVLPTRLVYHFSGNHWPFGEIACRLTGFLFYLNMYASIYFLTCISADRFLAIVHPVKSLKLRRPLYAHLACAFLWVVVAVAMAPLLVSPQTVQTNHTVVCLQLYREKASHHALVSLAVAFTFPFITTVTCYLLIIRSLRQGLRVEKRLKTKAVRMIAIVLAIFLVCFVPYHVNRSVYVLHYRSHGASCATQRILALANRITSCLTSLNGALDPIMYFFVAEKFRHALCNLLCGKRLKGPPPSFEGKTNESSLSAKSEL

[3] = target: GHSR1a (Homo sapiens, UniProt Q92847); assay: PathHunter U2OS GHSR1a β-arrestin counter assay; format: cell-based; conditions: dose response
Chain of GHSR1a (Q92847 whole entry): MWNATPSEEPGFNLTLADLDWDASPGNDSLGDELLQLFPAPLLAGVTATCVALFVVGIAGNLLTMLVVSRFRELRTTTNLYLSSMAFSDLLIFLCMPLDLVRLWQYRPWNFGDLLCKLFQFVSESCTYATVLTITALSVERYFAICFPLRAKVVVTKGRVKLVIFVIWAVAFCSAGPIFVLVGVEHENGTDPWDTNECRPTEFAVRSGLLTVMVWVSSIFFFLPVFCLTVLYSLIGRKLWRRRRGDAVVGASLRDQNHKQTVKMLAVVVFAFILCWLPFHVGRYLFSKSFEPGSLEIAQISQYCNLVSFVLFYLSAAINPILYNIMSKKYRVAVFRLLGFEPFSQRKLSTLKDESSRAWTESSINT

[4] = target: hGPR17 (Homo sapiens, UniProt Q13304); assay: Cisbio HTRF β-arrestin recruitment assay, Schild analysis; format: cell-based; conditions: Table 1
Chain of hGPR17 (Q13304 whole entry): as the sequence (Q13304 whole entry) above

[5] = target: T1, hGPR17L; assay: Calcium mobilization assay; format: cell-based; conditions: for antagonist activity at GPR17: calcium mobilization assay, data not shown
[6] = target: T1, hGPR17L; assay: GLP-1 secretion assay in GLUTag cells expressing hGPR17L; format: cell-based; conditions: 6.3 μM MDL; for attenuation of MDL-mediated inhibition of GLP-1 secretion: 10 μM compound, 10 μM forskolin and 10 μM IBMX
[7] = target: T1, hGPR17L; assay: cAMP accumulation HTRF assay
[8] = target: T2, hCysLTR2 (Homo sapiens, UniProt Q9NS75); assay: Calcium mobilization, Neuro-2a cells transiently transfected with hCysLTR2; format: cell-based; conditions: 10 μM compound; 50 nM LTD4
T2 sequence (Q9NS75 1-346): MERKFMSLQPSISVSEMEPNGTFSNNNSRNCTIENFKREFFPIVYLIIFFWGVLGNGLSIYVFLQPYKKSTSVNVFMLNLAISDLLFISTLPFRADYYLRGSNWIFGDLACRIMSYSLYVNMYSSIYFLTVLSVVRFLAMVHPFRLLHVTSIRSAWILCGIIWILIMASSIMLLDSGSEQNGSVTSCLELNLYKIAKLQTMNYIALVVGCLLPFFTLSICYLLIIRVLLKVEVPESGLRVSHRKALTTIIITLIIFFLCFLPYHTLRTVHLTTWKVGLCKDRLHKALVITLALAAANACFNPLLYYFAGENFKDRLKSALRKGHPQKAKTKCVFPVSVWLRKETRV

[9] = system: GPR17; conditions: cited from earlier work
[10] = target: GPR17 (long isoform) (Homo sapiens, UniProt Q13304); assay: PathHunter GPR17 β-arrestin recruitment assay; format: cell-based; conditions: IC50 (antagonist mode), assay development; stimulated with 2 μM MDL (~EC80)
Chain of GPR17 (long isoform) (Q13304 whole entry, canonical isoform): as the sequence (Q13304 whole entry) above

[11] = target: N-methyl-D-aspartate (NMDA) receptors, glycine binding site; conditions: cited from earlier work
[12] = target: T3, hCysLTR1 (Homo sapiens, UniProt Q9Y271); assay: Calcium mobilization, Neuro-2a cells transiently transfected with hCysLTR1; format: cell-based; conditions: 10 μM compound; 50 nM LTD4
T3 sequence (Q9Y271 1-337): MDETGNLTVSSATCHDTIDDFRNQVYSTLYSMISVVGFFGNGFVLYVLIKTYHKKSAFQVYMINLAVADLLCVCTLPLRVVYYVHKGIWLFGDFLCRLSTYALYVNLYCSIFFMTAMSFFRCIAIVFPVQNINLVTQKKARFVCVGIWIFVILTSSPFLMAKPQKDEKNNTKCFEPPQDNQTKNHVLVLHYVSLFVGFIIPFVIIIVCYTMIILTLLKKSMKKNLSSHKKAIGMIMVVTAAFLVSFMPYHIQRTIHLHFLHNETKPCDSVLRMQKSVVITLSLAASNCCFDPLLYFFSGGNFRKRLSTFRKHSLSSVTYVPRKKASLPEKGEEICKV

[13] = target: hP2RY1 (Homo sapiens, UniProt P47900); assay: Calcium mobilization, Neuro-2a cells transiently transfected with hP2RY1; format: cell-based; conditions: 10 μM compound (300 μM MRS2179); 8 nM 2MeSADP
Chain of hP2RY1 (P47900 whole entry): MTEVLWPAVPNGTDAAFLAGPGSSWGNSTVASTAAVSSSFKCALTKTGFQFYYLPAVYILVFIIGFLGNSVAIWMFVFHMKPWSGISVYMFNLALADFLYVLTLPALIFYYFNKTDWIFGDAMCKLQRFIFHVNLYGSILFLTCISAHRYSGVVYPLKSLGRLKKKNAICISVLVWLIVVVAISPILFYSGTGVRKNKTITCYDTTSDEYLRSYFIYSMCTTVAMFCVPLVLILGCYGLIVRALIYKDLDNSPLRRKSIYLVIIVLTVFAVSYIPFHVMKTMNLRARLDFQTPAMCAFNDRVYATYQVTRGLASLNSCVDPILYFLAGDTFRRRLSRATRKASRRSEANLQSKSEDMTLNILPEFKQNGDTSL

Chain of FGFR1 (P11362 22-822): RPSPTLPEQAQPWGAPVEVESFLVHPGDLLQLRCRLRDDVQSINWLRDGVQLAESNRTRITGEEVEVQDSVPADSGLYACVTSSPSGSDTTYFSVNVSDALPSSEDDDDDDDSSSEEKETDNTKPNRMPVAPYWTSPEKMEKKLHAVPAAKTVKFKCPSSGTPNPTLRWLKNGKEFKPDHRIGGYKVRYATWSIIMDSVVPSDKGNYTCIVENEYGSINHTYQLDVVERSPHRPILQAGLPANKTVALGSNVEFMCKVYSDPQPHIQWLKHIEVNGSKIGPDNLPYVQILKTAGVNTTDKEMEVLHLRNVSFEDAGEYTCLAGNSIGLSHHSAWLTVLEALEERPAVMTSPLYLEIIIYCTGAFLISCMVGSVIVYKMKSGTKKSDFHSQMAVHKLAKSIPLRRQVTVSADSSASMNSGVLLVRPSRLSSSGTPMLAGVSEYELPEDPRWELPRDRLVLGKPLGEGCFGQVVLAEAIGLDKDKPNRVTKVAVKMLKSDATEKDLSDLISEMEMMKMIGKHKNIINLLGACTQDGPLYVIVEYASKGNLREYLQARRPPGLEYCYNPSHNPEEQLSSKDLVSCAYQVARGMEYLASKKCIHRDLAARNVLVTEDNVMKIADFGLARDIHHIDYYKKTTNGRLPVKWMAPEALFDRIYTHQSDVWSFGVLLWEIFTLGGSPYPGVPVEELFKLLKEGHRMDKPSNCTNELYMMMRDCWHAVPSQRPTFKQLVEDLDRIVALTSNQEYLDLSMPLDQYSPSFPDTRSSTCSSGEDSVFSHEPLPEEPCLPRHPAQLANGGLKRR

- activity in FGFR1 functional counter assay [1]: no activity
- attenuation of MDL-mediated inhibition of forskolin-stimulated cAMP [2]: significantly attenuated
- activity in GHSR1a β-arrestin counter assay [3]: no activity
- β-arrestin Schild Slope (95% CI) [4]: 1.13 (0.96 – 1.30)
- Emax ([5]; 1321-N1, read-out: % Efficacy Avg ± SEM): 109 ± 3.38%
- IC50 ([5]; Calcium Assay IC50(μM) Avg ± SEM, Table 2, reported only when efficacy ≥75%): 5.47 ± 0.3 µM
- attenuation of MDL-mediated inhibition of GLP-1 secretion [6]: significantly attenuated
SMILES: COc1ccc(C(=O)NC2CCCc3c2[nH]c2c(Cl)cccc32)cc1OC (stereo not shown) [Compd 1, N-(8-Chloro-2,3,4,9-tetrahydro-1H-carbazol-1-yl)-3,4-dimethoxybenzamide]

- attenuation of MDL-mediated inhibition of forskolin-stimulated cAMP [2]: significantly attenuated
- IC50 ([7]; IC50 (antagonist mode), assay development, 30 nM MDL (EC80), 1 μM forskolin): 1.5 µM
- IC50 ([7]; IC50, cAMP HTRF assay, purified re-purchased/re-synthesized compounds reassessed): 10 µM
- IC50 ([5]; IC50 (antagonist mode), assay development, stimulated with […] MDL (~EC80)): 8.1 µM
- antagonist activity at GPR17 [5]: full antagonist activity
- attenuation of MDL-mediated inhibition of GLP-1 secretion [6]: significantly attenuated
- block of CYSLTR2 activation [8]: antagonized
- IC50 [10]: 8.2 µM
SMILES: O=C(O)c1ccc(OCCCc2ccc(OCCCCOC3CCCCC3)cc2)c(C(=O)NC2CCCC(C(=O)O)C2)c1 (stereo not shown) [HAMI]
- IC50 [9]: single digit micromolar range
- block of MDL-stimulated receptor activation of GPR17 [9]: completely

- forskolin-stimulated cAMP after GPR17 activation ([2]; forskolin plus MDL): 3.5 ± 0.18 nM
- inhibition of forskolin stimulated cAMP ([2]; forskolin plus MDL): 29 ± 3%
- EC50 [7]: 0.0019 µM
- EC50 [5]: 0.28 µM
- forskolin and IBMX-stimulated GLP-1 secretion after GPR17 activation [6]: 50.1 ± 4.6 pM
- reduction of forskolin and IBMX-stimulated GLP-1 secretion [6]: 33 ± 8%
SMILES: O=C(O)CCc1c(C(=O)O)[nH]c2cc(Cl)cc(Cl)c12 [MDL, 3-(2-carboxyethyl)-4,6-dichloro-1H-indole-2-carboxylic acid]
- Ki [11]: 0.14 µM

- antagonist activity at GPR17 [5]: full antagonist activity
- block of CYSLTR1 activation [12]: antagonized
SMILES: O=C(Nc1cccc2c(=O)cc(-c3nnn[nH]3)oc12)c1ccc(OCCCCc2ccccc2)cc1 [pranlukast]
- block of MDL-stimulated receptor activation of GPR17 [9]: completely

- block of P2RY1 activation [13]: antagonized
SMILES: CNc1ncnc2c1ncn2[C@H]1C[C@H](OP(=O)(O)O)[C@@H](COP(=O)(O)O)O1 [MRS2179]
